Data published in the OligoGym collection.
HELM strings list units from the 5' end as sugar, base in round brackets, then linkage (d deoxyribose, r ribose, m 2'-O-methyl, p phosphodiester). Strings are as the collection lists them, not checked against the first reports. ss, as = sense and antisense strand; [lna] = locked nucleic acid (LNA); [hna] = hexitol nucleic acid; [fl2r] = 2'-fluoro

Conditions: siRNA
Also: test system not given here.

Substance	target mRNA knockdown [%]
RNA1{r(C)p.r(U)p.r(U)p.r(A)p.r(C)p.r(G)p.r(C)p.r(U)p.r(G)p.r(A)p.r(G)p.r(U)p.r(A)p.r(C)p.r(U)p.r(U)p.r(C)p.r(G)p.r(A)p.r(T)p.r(T)}|RNA2{r(U)p.r(C)p.r(G)p.r(A)p.r(A)p.r(G)p.r(U)p.r(A)p.r(C)p.r(U)p.r(C)p.r(A)p.[lna](G)p.r(C)p.r(G)p.r(U)p.r(A)p.r(A)p.r(G)p.r(T)p.r(T)}$$$RNA1{StrandType:ss}|RNA2{StrandType:as}$	65
RNA1{r(C)p.r(U)p.r(U)p.r(A)p.r(C)p.r(G)p.r(C)p.r(U)p.r(G)p.r(A)p.r(G)p.r(U)p.r(A)p.r(C)p.r(U)p.r(U)p.r(C)p.r(G)p.r(A)p.r(T)p.r(T)}|RNA2{r(U)p.r(C)p.r(G)p.r(A)p.r(A)p.r(G)p.r(U)p.r(A)p.r(C)p.r(U)p.r(C)p.r(A)p.r(G)p.[lna](C)p.r(G)p.r(U)p.r(A)p.r(A)p.r(G)p.r(T)p.r(T)}$$$RNA1{StrandType:ss}|RNA2{StrandType:as}$	43
RNA1{r(C)p.r(U)p.r(U)p.r(A)p.r(C)p.r(G)p.r(C)p.r(U)p.r(G)p.r(A)p.r(G)p.r(U)p.r(A)p.r(C)p.r(U)p.r(U)p.r(C)p.r(G)p.r(A)p.r(T)p.r(T)}|RNA2{r(U)p.r(C)p.r(G)p.r(A)p.r(A)p.r(G)p.r(U)p.r(A)p.r(C)p.r(U)p.r(C)p.r(A)p.r(G)p.r(C)p.[lna](G)p.r(U)p.r(A)p.r(A)p.r(G)p.r(T)p.r(T)}$$$RNA1{StrandType:ss}|RNA2{StrandType:as}$	85
RNA1{r(C)p.r(U)p.r(U)p.r(A)p.r(C)p.r(G)p.r(C)p.r(U)p.r(G)p.r(A)p.r(G)p.r(U)p.r(A)p.r(C)p.r(U)p.r(U)p.r(C)p.r(G)p.r(A)p.r(T)p.r(T)}|RNA2{r(U)p.r(C)p.r(G)p.r(A)p.r(A)p.r(G)p.r(U)p.r(A)p.r(C)p.r(U)p.r(C)p.r(A)p.r(G)p.r(C)p.r(G)p.[lna](U)p.r(A)p.r(A)p.r(G)p.r(T)p.r(T)}$$$RNA1{StrandType:ss}|RNA2{StrandType:as}$	81
RNA1{r(C)p.r(U)p.r(U)p.r(A)p.r(C)p.r(G)p.r(C)p.r(U)p.r(G)p.r(A)p.r(G)p.r(U)p.r(A)p.r(C)p.r(U)p.r(U)p.r(C)p.r(G)p.r(A)p.r(T)p.r(T)}|RNA2{r(U)p.r(C)p.r(G)p.r(A)p.r(A)p.r(G)p.r(U)p.r(A)p.r(C)p.r(U)p.r(C)p.r(A)p.r(G)p.r(C)p.r(G)p.r(U)p.[lna](A)p.r(A)p.r(G)p.r(T)p.r(T)}$$$RNA1{StrandType:ss}|RNA2{StrandType:as}$	93
RNA1{r(C)p.r(U)p.r(U)p.r(A)p.r(C)p.r(G)p.r(C)p.r(U)p.r(G)p.r(A)p.r(G)p.r(U)p.r(A)p.r(C)p.r(U)p.r(U)p.r(C)p.r(G)p.r(A)p.r(T)p.r(T)}|RNA2{r(U)p.r(C)p.r(G)p.r(A)p.r(A)p.r(G)p.r(U)p.r(A)p.r(C)p.r(U)p.r(C)p.r(A)p.r(G)p.r(C)p.r(G)p.r(U)p.r(A)p.[lna](A)p.r(G)p.r(T)p.r(T)}$$$RNA1{StrandType:ss}|RNA2{StrandType:as}$	92
RNA1{r(C)p.r(U)p.r(U)p.r(A)p.r(C)p.r(G)p.r(C)p.r(U)p.r(G)p.r(A)p.r(G)p.r(U)p.r(A)p.r(C)p.r(U)p.r(U)p.r(C)p.r(G)p.r(A)p.r(T)p.r(T)}|RNA2{r(U)p.r(C)p.r(G)p.r(A)p.r(A)p.r(G)p.r(U)p.r(A)p.r(C)p.r(U)p.r(C)p.r(A)p.r(G)p.r(C)p.r(G)p.r(U)p.r(A)p.r(A)p.[lna](G)p.r(T)p.r(T)}$$$RNA1{StrandType:ss}|RNA2{StrandType:as}$	88
RNA1{r(C)p.r(U)p.r(U)p.r(A)p.r(C)p.r(G)p.r(C)p.r(U)p.r(G)p.r(A)p.r(G)p.r(U)p.r(A)p.r(C)p.r(U)p.r(U)p.r(C)p.r(G)p.r(A)p.r(T)p.r(T)}|RNA2{r(U)p.r(C)p.r(G)p.r(A)p.r(A)p.r(G)p.r(U)p.r(A)p.r(C)p.r(U)p.r(C)p.r(A)p.r(G)p.r(C)p.r(G)p.r(U)p.r(A)p.r(A)p.r(G)p.[lna](T)p.[lna](T)}$$$RNA1{StrandType:ss}|RNA2{StrandType:as}$	93
RNA1{r(C)p.r(U)p.r(U)p.r(C)p.r(U)p.r(U)p.r(C)p.r(G)p.r(U)p.r(C)p.r(G)p.r(A)p.r(G)p.r(A)p.r(C)p.r(C)p.r(A)p.r(U)p.r(G)p.d(T)p.d(T)}|RNA2{r(C)p.r(A)p.r(U)p.r(G)p.r(G)p.r(U)p.r(C)p.r(U)p.r(C)p.r(G)p.r(A)p.r(C)p.r(G)p.r(A)p.r(A)p.r(G)p.r(A)p.r(A)p.r(G)p.d(T)p.d(T)}$$$RNA1{StrandType:ss}|RNA2{StrandType:as}$	45
RNA1{r(G)p.[fl2r](A)p.r(A)p.r(A)p.[fl2r](C)p.[fl2r](U)p.r(G)p.r(G)p.[fl2r](U)p.[fl2r](A)p.[fl2r](C)p.[fl2r](U)p.[fl2r](U)p.[fl2r](U)p.[fl2r](C)p.[fl2r](C)p.[fl2r](C)p.[fl2r](C)p.[fl2r](C)p.r(T)p.r(T)}|RNA2{r(G)p.r(G)p.r(G)p.r(G)p.r(G)p.r(A)p.r(A)p.r(A)p.r(G)p.r(U)p.r(A)p.r(C)p.r(C)p.r(A)p.r(G)p.r(U)p.r(U)p.r(U)p.r(C)p.r(T)p.r(T)}$$$RNA1{StrandType:ss}|RNA2{StrandType:as}$	60
RNA1{r(G)p.[fl2r](C)p.r(A)p.r(G)p.[fl2r](C)p.r(A)p.[fl2r](C)p.r(G)p.r(A)p.[fl2r](C)p.[fl2r](U)p.[fl2r](U)p.[fl2r](C)p.[fl2r](U)p.[fl2r](U)p.[fl2r](C)p.r(A)p.r(A)p.r(G)p.r(T)p.r(T)}|RNA2{[fl2r](C)p.[fl2r](U)p.[fl2r](U)p.r(G)p.r(A)p.r(A)p.r(G)p.r(A)p.r(A)p.r(G)p.[fl2r](U)p.[fl2r](C)p.r(G)p.[fl2r](U)p.r(G)p.[fl2r](C)p.[fl2r](U)p.r(G)p.[fl2r](C)p.r(T)p.r(T)}$$$RNA1{StrandType:ss}|RNA2{StrandType:as}$	83
RNA1{r(G)p.[fl2r](C)p.r(A)p.r(G)p.[fl2r](C)p.r(A)p.[fl2r](C)p.r(G)p.r(A)p.[fl2r](C)p.[fl2r](U)p.[fl2r](U)p.[fl2r](C)p.[fl2r](U)p.[fl2r](U)p.[fl2r](C)p.r(A)p.r(A)p.r(G)p.r(T)p.r(T)}|RNA2{r(C)p.r(U)p.r(U)p.r(G)p.r(A)p.r(A)p.r(G)p.r(A)p.r(A)p.r(G)p.r(U)p.r(C)p.r(G)p.r(U)p.r(G)p.r(C)p.r(U)p.r(G)p.r(C)p.r(T)p.r(T)}$$$RNA1{StrandType:ss}|RNA2{StrandType:as}$	92
RNA1{r(G)p.[hna](A)p.r(C)p.r(G)p.r(U)p.r(A)p.r(A)p.[hna](A)p.r(C)p.r(G)p.r(G)p.r(C)p.r(C)p.[hna](A)p.r(C)p.r(A)p.[hna](A)p.r(G)p.r(U)p.r(U)p.r(C)}|RNA2{[fl2r](A)p.m(C)p.[fl2r](U)p.m(U)p.[fl2r](G)p.m(U)p.[fl2r](G)p.m(G)p.[fl2r](C)p.m(C)p.[fl2r](G)p.m(U)p.[fl2r](U)p.m(U)p.[fl2r](A)p.m(C)p.[fl2r](G)p.m(U)p.[fl2r](C)p.m(G)p.[fl2r](C)}$$$RNA1{StrandType:ss}|RNA2{StrandType:as}$	7.8
RNA1{r(G)p.[hna](A)p.r(C)p.r(G)p.r(U)p.r(A)p.r(A)p.[hna](A)p.r(C)p.r(G)p.r(G)p.r(C)p.r(C)p.[hna](A)p.r(C)p.r(A)p.[hna](A)p.r(G)p.r(U)p.r(U)p.r(C)}|RNA2{r(A)p.m(C)p.r(U)p.r(U)p.r(G)p.r(U)p.r(G)p.r(G)p.r(C)p.r(C)p.r(G)p.r(U)p.r(U)p.r(U)p.r(A)p.r(C)p.r(G)p.r(U)p.r(C)p.r(G)p.r(C)}$$$RNA1{StrandType:ss}|RNA2{StrandType:as}$	54.2
RNA1{r(G)p.[hna](A)p.r(C)p.r(G)p.r(U)p.r(A)p.r(A)p.[hna](A)p.r(C)p.r(G)p.r(G)p.r(C)p.r(C)p.[hna](A)p.r(C)p.r(A)p.[hna](A)p.r(G)p.r(U)p.r(U)p.r(C)}|RNA2{r(A)p.r(C)p.[lna](T)p.r(U)p.r(G)p.[lna](T)p.r(G)p.r(G)p.r(C)p.r(C)p.r(G)p.r(U)p.r(U)p.[lna](T)p.r(A)p.r(C)p.r(G)p.[lna](T)p.r(C)p.[lna](G)p.[lna](C)}$$$RNA1{StrandType:ss}|RNA2{StrandType:as}$	3.6
RNA1{r(G)p.[hna](A)p.r(C)p.r(G)p.r(U)p.r(A)p.r(A)p.[hna](A)p.r(C)p.r(G)p.r(G)p.r(C)p.r(C)p.[hna](A)p.r(C)p.r(A)p.[hna](A)p.r(G)p.r(U)p.r(U)p.r(C)}|RNA2{r(A)p.r(C)p.r(U)p.r(U)p.r(G)p.r(U)p.r(G)p.r(G)p.r(C)p.r(C)p.r(G)p.r(U)p.r(U)p.r(U)p.r(A)p.r(C)p.r(G)p.r(U)p.[lna](C)p.[lna](G)p.r(C)}$$$RNA1{StrandType:ss}|RNA2{StrandType:as}$	79.1
RNA1{r(G)p.[hna](A)p.r(C)p.r(G)p.r(U)p.r(A)p.r(A)p.[hna](A)p.r(C)p.r(G)p.r(G)p.r(C)p.r(C)p.[hna](A)p.r(C)p.r(A)p.[hna](A)p.r(G)p.r(U)p.r(U)p.r(C)}|RNA2{r(A)p.r(C)p.r(U)p.r(U)p.r(G)p.r(U)p.r(G)p.r(G)p.r(C)p.r(C)p.r(G)p.r(U)p.r(U)p.r(U)p.r(A)p.r(C)p.r(G)p.r(U)p.r(C)p.r(G)p.r(C)}$$$RNA1{StrandType:ss}|RNA2{StrandType:as}$	84.9
RNA1{r(G)p.m(C)p.r(A)p.r(A)p.r(G)p.r(U)p.r(G)p.r(G)p.r(C)p.r(A)p.r(A)p.r(G)p.r(A)p.r(G)p.r(G)p.r(A)p.r(U)p.m(U)p.r(A)p.r(T)p.r(T)}|RNA2{m(U)p.r(A)p.r(A)p.r(U)p.r(C)p.r(C)p.r(U)p.r(C)p.r(U)p.m(U)p.r(G)p.r(C)p.m(C)p.r(A)p.r(C)p.r(U)p.m(U)p.r(G)p.r(C)p.r(T)p.r(T)}$$$RNA1{StrandType:ss}|RNA2{StrandType:as}$	68
RNA1{r(G)p.m(C)p.r(A)p.r(G)p.r(A)p.r(G)p.r(A)p.r(A)p.m(U)p.m(C)p.m(U)p.r(A)p.m(C)p.m(C)p.m(U)p.m(U)p.m(U)p.m(C)p.m(C)p.r(T)p.r(T)}|RNA2{r(G)p.r(G)p.r(A)p.r(A)p.r(A)p.r(G)p.r(G)p.m(U)p.r(A)p.r(G)p.r(A)p.m(U)p.m(U)p.m(C)p.m(U)p.m(C)p.m(U)p.r(G)p.m(C)p.r(T)p.r(T)}$$$RNA1{StrandType:ss}|RNA2{StrandType:as}$	13
